Article PMC12892976, “Alkylation-based optimization of antifungal FPPS inhibitors yields a potent, broad-spectrum lipophilic zoledronate derivative” (mBio, 2025)
In brackets after ≈: the same amount, converted by molar mass.

How the values were obtained:
[1] = tested on: Nannizzia nana; experiment: MIC broth microdilution (CLSI); assay type: cell-based; settings: Nannizzia nana R-133
Protocol: (§1) Antifungal susceptibility was determined by broth microdilution according to the CLSI guidelines described in M27-Ed4 ([16]).

[2] = tested on: Nannizzia nana; experiment: checkerboard drug interaction (FICI, MICc); assay type: cell-based;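 note: simplified diagonal checkerboard screen pairing antifungals with FPPS inhibitors, FICI calculated under the Loewe additivity model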
Protocol: (§2) Drug interactions between antifungals and FPPS inhibitors were investigated using a simplified checkerboard diagonal screening method ([45]). […] FICIs were determined according to the Loewe additivity model ([17]).

[3] = tested on: Cryptococcus tetragattii; experiment: checkerboard drug interaction (FICI, MICc); assay type: cell-based;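 note: simplified diagonal checkerboard screen pairing antifungals with FPPS inhibitors, with FICI calculated under the Loewe additivity model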
Protocol: as §2

[4] = tested on: Cryptococcus tetragattii; experiment: MIC broth microdilution (CLSI); assay type: cell-based; settings: Cryptococcus tetragattii WM779
Protocol: as §1

[5] = tested on: Aspergillus felis; experiment: checkerboard drug interaction (FICI, MICc); assay type: cell-based;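 note: simplified diagonal checkerboard screen pairing antifungals with FPPS inhibitors, FICI calculated under the Loewe additivity model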
Protocol: as §2

[6] = tested on: Aspergillus parafelis; experiment: checkerboard drug interaction (FICI, MICc);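 note: simplified diagonal checkerboard screen pairing antifungals with FPPS inhibitors, FICI calculated under the Loewe additivity model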
Protocol: as §2

[7] = tested on: Aspergillus udagawae; experiment: MIC broth microdilution (CLSI); assay type: cell-based; settings: Aspergillus udagawae 8G81
Protocol: as §1

[8] = tested on: Epidermophyton floccosum; experiment: MIC broth microdilution (CLSI); assay type: cell-based; settings: Epidermophyon floccosum R-113
Protocol: as §1

[9] = tested on: Candida parapsilosis; experiment: MIC broth microdilution (CLSI); assay type: cell-based; settings: Candida parapsilosis ATCC 22018
Protocol: (§3) Antifungal susceptibility was determined by broth microdilution according to the CLSI guidelines described in M27-Ed4 ([16]). […] MFC was determined by back-plating drug-treated cultures from MIC broths onto SDA plates. The MFC was defined as the lowest concentration from which no colonies could be cultured.

[10] = tested on: Candida auris; experiment: checkerboard drug interaction (FICI, MICc); assay type: cell-based;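 note: simplified diagonal checkerboard screen pairing antifungals with FPPS inhibitors, with FICI computed under the Loewe additivity model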
Protocol: as §2

[11] = tested on: Rhizopus oryzae; experiment: checkerboard drug interaction (FICI, MICc); assay type: cell-based;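 note: simplified diagonal checkerboard screen pairing antifungals with FPPS inhibitors, FICI calculated under the Loewe additivity model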
Protocol: as §2

[12] = tested on: Pichia kudriavzevii; experiment: checkerboard drug interaction (FICI, MICc); assay type: cell-based;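 note: antifungal plus FPPS inhibitor interactions tested in a simplified diagonal checkerboard screen, with FICI calculated under the Loewe additivity model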
Protocol: as §2

[13] = tested on: Cryptococcus deneoformans; experiment: MIC broth microdilution (CLSI); assay type: cell-based; settings: Cryptococcus deneoformans JEC21
Protocol: as §1

[14] = tested on: Aspergillus lentulus; experiment: checkerboard drug interaction (FICI, MICc); assay type: cell-based;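 note: simplified diagonal checkerboard screen pairing antifungals with FPPS inhibitors, with the interaction index calculated under the Loewe additivity model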
Protocol: as §2

[15] = tested on: Mucor circinelloides; experiment: checkerboard drug interaction (FICI, MICc); assay type: cell-based
Protocol: as §2

[16] = tested on: Trichophyton tonsurans; experiment: MIC broth microdilution (CLSI); settings: Trichophyton tonsurans R-168
Protocol: as §1

[17] = tested on: Candida tropicalis; experiment: MIC broth microdilution (CLSI); assay type: cell-based; settings: Candida tropicalis M230640
Protocol: as §1

[18] = tested on: Microsporum canis; experiment: MIC broth microdilution (CLSI); settings: Microsporum canis R-232
Protocol: as §1

[19] = tested on: Cryptococcus bacillisporus; experiment: checkerboard drug interaction (FICI, MICc); assay type: cell-based;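 note: interaction of antifungals with FPPS inhibitors assessed by a simplified diagonal checkerboard screen, with FICI computed under the Loewe additivity model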
Protocol: as §2

[20] = tested on: Aspergillus terreus; experiment: checkerboard drug interaction (FICI, MICc); assay type: cell-based;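 note: simplified diagonal checkerboard screen pairing antifungals with FPPS inhibitors, FICI derived by the Loewe additivity model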
Protocol: as §2

[21] = tested on: Pichia kudriavzevii; experiment: MIC broth microdilution (CLSI); assay type: cell-based; settings: Pichia kudriavzavii ATCC 6258
Protocol: as §3

[22] = tested on: Nannizzia gypsea; experiment: checkerboard drug interaction (FICI, MICc);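 note: simplified diagonal checkerboard screen pairing antifungals with FPPS inhibitors, FICI derived using the Loewe additivity model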
Protocol: as §2

[23] = tested on: Candida dubliniensis; experiment: MIC broth microdilution (CLSI); assay type: cell-based; settings: Candida dubliniensis M230642
Protocol: as §1

[24] = tested on: Candida auris; experiment: MIC broth microdilution (CLSI); assay type: cell-based; settings: Candida auris CDC-0384
Protocol: as §1

[25] = tested on: Lomentospora prolificans; experiment: checkerboard drug interaction (FICI, MICc)
Protocol: as §2

[26] = tested on: Microsporum canis; experiment: checkerboard drug interaction (FICI, MICc); assay type: cell-based
Protocol: as §2

[27] = tested on: Fusarium oxysporum; experiment: MIC broth microdilution (CLSI); assay type: cell-based; settings: Fusarium oxysporum 07-200-3012
Protocol: as §1

[28] = tested on: Candida dubliniensis; experiment: checkerboard drug interaction (FICI, MICc); assay type: cell-based
Protocol: as §2

[29] = tested on: Paraphyton cookei; experiment: MIC broth microdilution (CLSI); assay type: cell-based; settings: Paraphyton cookei R-639
Protocol: as §1

[30] = tested on: Lomentospora prolificans; experiment: MIC broth microdilution (CLSI); assay type: cell-based; settings: Lomentospora prolificans 80-16-101-2445
Protocol: as §1

[31] = tested on: Paraphyton cookei; experiment: checkerboard drug interaction (FICI, MICc);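 note: simplified diagonal checkerboard screen pairing an antifungal with an FPPS inhibitor, FICI computed under the Loewe additivity model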
Protocol: as §2

[32] = tested on: Candida tropicalis; experiment: checkerboard drug interaction (FICI, MICc); assay type: cell-based;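 note: simplified diagonal checkerboard screen of antifungal plus FPPS inhibitor combinations, with FICI computed by the Loewe additivity model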
Protocol: as §2

[33] = tested on: Aspergillus felis; experiment: MIC broth microdilution (CLSI); assay type: cell-based; settings: Aspergillus felis IHE87256683D6
Protocol: as §1

[34] = tested on: Aspergillus udagawae; experiment: checkerboard drug interaction (FICI, MICc); assay type: cell-based;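 note: simplified diagonal checkerboard screen pairing antifungals with FPPS inhibitors, FICI calculated using the Loewe additivity model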
Protocol: as §2

[35] = tested on: Fusarium solani; experiment: checkerboard drug interaction (FICI, MICc); assay type: cell-based;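 note: simplified diagonal checkerboard screen pairing antifungals with FPPS inhibitors, FICI derived under the Loewe additivity model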
Protocol: as §2

**Q.** How did the “MIC / MEC” value [1] turn out when `Nc1nc(=O)[nH]cc1F` [5FC, 5-flucytosine] was run?
**A.** The value was 32 mg/L (≈ 248 µM).

**Q.** And the “antifungal MICc” value ([2]; in combination with 10-ZOL)?
**A.** The value was 32.

**Q.** What about the “antifungal MICc” value ([2]; in combination with ZOL) of the same compound?
**A.** Its value is 64.

**Q.** And the “antifungal MICc” value ([3]; in combination with 10-ZOL)?
**A.** The value was 0.5.

**Q.** And the “antifungal MICc” value ([3]; in combination with ZOL)?
**A.** Its value is 0.5.

**Q.** What about the “MIC / MEC” value [4] of the same compound?
**A.** Its value is 4 mg/L (≈ 31 µM).

**Q.** And the “antifungal MICc” value ([5]; in combination with 10-ZOL)?
**A.** The value was 256.

**Q.** What about the “antifungal MICc” value ([5]; in combination with ZOL) of the same compound?
**A.** Its value is 64.

**Q.** And the “antifungal MICc” value ([6]; in combination with 10-ZOL)?
**A.** Its value is 512.

**Q.** And the “antifungal MICc” value ([6]; in combination with ZOL)?
**A.** Its value is 128.

**Q.** What about the “MIC / MEC” value [7] of the same compound?
**A.** Its value is greater than 64 mg/L.

**Q.** What about the “MIC / MEC” value [8] of the same compound?
**A.** The value was 64 mg/L (≈ 496 µM).

**Q.** What about the “MIC / MEC” value [9] of the same compound?
**A.** The value was 0.5 mg/L (≈ 3.87 µM).

**Q.** What about the “antifungal MICc” value ([10]; in combination with 10-ZOL) of the same compound?
**A.** Its value is 2.

**Q.** What about the “antifungal MICc” value ([10]; in combination with ZOL) of the same compound?
**A.** Its value is 1.

**Q.** And the “antifungal MICc” value ([11]; in combination with 10-ZOL)?
**A.** The value was 512.

**Q.** And the “antifungal MICc” value ([11]; in combination with ZOL)?
**A.** Its value is 256.

**Q.** What about the “antifungal MICc” value ([12]; in combination with 10-ZOL) of the same compound?
**A.** The value was 16.

**Q.** And the “antifungal MICc” value ([12]; in combination with ZOL)?
**A.** The value was 2.

**Q.** And the “MIC / MEC” value [13]?
**A.** The value was 2 mg/L (≈ 15.5 µM).

**Q.** And the “antifungal MICc” value ([14]; in combination with 10-ZOL)?
**A.** The value was 512.

**Q.** What about the “antifungal MICc” value ([14]; in combination with ZOL) of the same compound?
**A.** The value was 256.

**Q.** What about the “antifungal MICc” value ([15]; in combination with 10-ZOL) of the same compound?
**A.** Its value is 512.

**Q.** What about the “antifungal MICc” value ([15]; in combination with ZOL) of the same compound?
**A.** The value was 512.

**Q.** And the “MIC / MEC” value [16]?
**A.** The value was 64 mg/L (≈ 496 µM).

**Q.** And the “MIC / MEC” value [17]?
**A.** Its value is 0.5 mg/L (≈ 3.87 µM).

**Q.** What about the “MIC / MEC” value [18] of the same compound?
**A.** The value was greater than 64 mg/L.

**Q.** And the “antifungal MICc” value ([19]; in combination with 10-ZOL)?
**A.** The value was 1.

**Q.** And the “antifungal MICc” value ([19]; in combination with ZOL)?
**A.** Its value is 0.125.

**Q.** What about the “antifungal MICc” value ([20]; in combination with 10-ZOL) of the same compound?
**A.** The value was 64.

**Q.** What about the “antifungal MICc” value ([20]; in combination with ZOL) of the same compound?
**A.** Its value is 32.

**Q.** And the “MIC / MEC” value [21]?
**A.** Its value is 16 mg/L (≈ 124 µM).

**Q.** And the “antifungal MICc” value ([22]; in combination with 10-ZOL)?
**A.** The value was 512.

**Q.** What about the “antifungal MICc” value ([22]; in combination with ZOL) of the same compound?
**A.** Its value is 256.

**Q.** And the “MIC / MEC” value [23]?
**A.** The value was 0.25 mg/L (≈ 1.94 µM).

**Q.** What about the “MIC / MEC” value [24] of the same compound?
**A.** The value was 2 mg/L (≈ 15.5 µM).

**Q.** And the “antifungal MICc” value ([25]; in combination with 10-ZOL)?
**A.** Its value is 256.

**Q.** And the “antifungal MICc” value ([25]; in combination with ZOL)?
**A.** Its value is 256.

**Q.** And the “antifungal MICc” value ([26]; in combination with 10-ZOL)?
**A.** The value was 256.

**Q.** And the “antifungal MICc” value ([26]; in combination with ZOL)?
**A.** Its value is 512.

**Q.** What about the “MIC / MEC” value [27] of the same compound?
**A.** The value was greater than 64 mg/L.

**Q.** And the “antifungal MICc” value ([28]; in combination with 10-ZOL)?
**A.** The value was 0.125.

**Q.** What about the “antifungal MICc” value ([28]; in combination with ZOL) of the same compound?
**A.** Its value is 0.125.

**Q.** And the “MIC / MEC” value [29]?
**A.** The value was greater than 64 mg/L.

**Q.** And the “MIC / MEC” value [30]?
**A.** The value was greater than 64 mg/L.

**Q.** And the “antifungal MICc” value ([31]; in combination with 10-ZOL)?
**A.** Its value is 512.

**Q.** And the “antifungal MICc” value ([31]; in combination with ZOL)?
**A.** Its value is 512.

**Q.** What about the “antifungal MICc” value ([32]; in combination with 10-ZOL) of the same compound?
**A.** The value was 0.5.

**Q.** And the “antifungal MICc” value ([32]; in combination with ZOL)?
**A.** The value was 0.125.

**Q.** And the “MIC / MEC” value [33]?
**A.** The value was greater than 64 mg/L.

**Q.** And the “antifungal MICc” value ([34]; in combination with 10-ZOL)?
**A.** Its value is 64.

**Q.** What about the “antifungal MICc” value ([34]; in combination with ZOL) of the same compound?
**A.** The value was 256.

**Q.** And the “antifungal MICc” value ([35]; in combination with 10-ZOL)?
**A.** Its value is 512.

**Q.** What about the “antifungal MICc” value ([35]; in combination with ZOL) of the same compound?
**A.** The value was 256.

**Q.** Which results are given for `OC(Cn1cncn1)(Cn1cncn1)c1ccc(F)cc1F` [FLC, fluconazole]?
**A.** MIC / MEC [1]: 32 mg/L (≈ 104 µM); antifungal MICc ([2]; in combination with 10-ZOL): 32; antifungal MICc ([2]; in combination with ZOL): 8; antifungal MICc ([3]; in combination with 10-ZOL): 2; antifungal MICc ([3]; in combination with ZOL): 1; MIC / MEC [4]: 4 mg/L (≈ 13.1 µM); antifungal MICc ([5]; in combination with 10-ZOL): 4; antifungal MICc ([6]; in combination with 10-ZOL): 4; MIC / MEC [9]: 2 mg/L (≈ 6.53 µM); antifungal MICc ([10]; in combination with 10-ZOL): 64; antifungal MICc ([10]; in combination with ZOL): 32; antifungal MICc ([11]; in combination with 10-ZOL): 32; antifungal MICc ([12]; in combination with 10-ZOL): 16; antifungal MICc ([12]; in combination with ZOL): 8; MIC / MEC [13]: 0.5 mg/L (≈ 1.63 µM); antifungal MICc ([14]; in combination with 10-ZOL): 4; antifungal MICc ([14]; in combination with ZOL): 64; antifungal MICc ([15]; in combination with 10-ZOL): 32; antifungal MICc ([15]; in combination with ZOL): 32; MIC / MEC [17]: 16 mg/L (≈ 52.2 µM); antifungal MICc ([19]; in combination with 10-ZOL): 1; antifungal MICc ([19]; in combination with ZOL): 0.125; antifungal MICc ([20]; in combination with 10-ZOL): 2; antifungal MICc ([20]; in combination with ZOL): 8; MIC / MEC [21]: 32 mg/L (≈ 104 µM); antifungal MICc ([22]; in combination with 10-ZOL): 64; MIC / MEC [23]: 0.125 mg/L (≈ 0.408 µM); antifungal MICc ([25]; in combination with ZOL): 512; antifungal MICc ([26]; in combination with 10-ZOL): 64; antifungal MICc ([26]; in combination with ZOL): 32; antifungal MICc ([28]; in combination with 10-ZOL): 0.125; antifungal MICc ([28]; in combination with ZOL): 0.03125; antifungal MICc ([31]; in combination with 10-ZOL): 8; antifungal MICc ([32]; in combination with 10-ZOL): 1; antifungal MICc ([32]; in combination with ZOL): 2; antifungal MICc ([34]; in combination with 10-ZOL): 4; antifungal MICc ([35]; in combination with 10-ZOL): 64; antifungal MICc ([35]; in combination with ZOL): 32
